Data from article PMC6308032 (Molecular Metabolism, 2018).

How the values were obtained:
[1] = Clinical pharmacokinetics, SAD part; assay type: in vivo; conditions: human; for AUC(0-inf) / CL/F / Cmax / Tmax / Vd/F / half-life: plasma, sc
[2] = system: healthy subjects and patients with T2DM; assay: ECG analysis; assay type: in vivo, human
[3] = system: healthy subjects and patients with T2DM; assay: Other safety laboratory parameters; assay type: in vivo, human
[4] = Clinical pharmacokinetics, MAD part; assay type: in vivo; conditions: human, SC once weekly
[5] = Immunogenicity, anti-drug antibody; assay type: in vivo, human; conditions: whole study
patients with T2DM = assay: Adverse events, Phase 1b POC part; assay type: in vivo, human; conditions: for Any TEAE: T2DM patients
healthy subjects = assay: Pharmacodynamics; assay type: in vivo, human; conditions: MAD, dulaglutide 1.5 mg/wk, LSM

CC[C@H](C)[C@H](NC(=O)[C@H](CC(C)C)NC(=O)[C@H](Cc1c[nH]c2ccccc12)NC(=O)[C@H](CCC(N)=O)NC(=O)[C@@H](NC(=O)[C@H](Cc1ccccc1)NC(=O)[C@H](C)NC(=O)[C@H](CCCCNC(=O)COCCOCCNC(=O)COCCOCCNC(=O)CC[C@H](NC(=O)CCCCCCCCCCCCCCCCCCC(=O)O)C(=O)O)NC(=O)[C@H](CCC(N)=O)NC(=O)[C@H](C)NC(=O)[C@@H](NC(=O)[C@H](CCCCN)NC(=O)[C@H](CC(=O)O)NC(=O)[C@H](CC(C)C)NC(=O)C(C)(C)NC(=O)[C@@H](NC(=O)[C@H](CO)NC(=O)[C@H](Cc1ccc(O)cc1)NC(=O)[C@H](CC(=O)O)NC(=O)[C@H](CO)NC(=O)[C@@H](NC(=O)[C@H](Cc1ccccc1)NC(=O)[C@@H](NC(=O)CNC(=O)[C@H](CCC(=O)O)NC(=O)C(C)(C)NC(=O)[C@@H](N)Cc1ccc(O)cc1)[C@@H](C)O)[C@@H](C)O)[C@@H](C)CC)[C@@H](C)CC)C(C)C)C(=O)N[C@@H](C)C(=O)NCC(=O)NCC(=O)N1CCC[C@H]1C(=O)N[C@@H](CO)C(=O)N[C@@H](CO)C(=O)NCC(=O)N[C@@H](C)C(=O)N1CCC[C@H]1C(=O)N1CCC[C@H]1C(=O)N1CCC[C@H]1C(=O)N[C@@H](CO)C(N)=O [LY3298176]
time of maximum concentration after dosing ([1]; SC, over the doses studied): 24 to 48 h | AUC(0-inf) ([1]; 0.25 mg): 5760 ng·h/mL | CL/F ([1]; 0.25 mg): 0.723 mL/min | Cmax ([1]; 0.25 mg): 26 ng/mL | Tmax ([1]; 0.25 mg): 48 h | Vd/F ([1]; 0.25 mg): 7.26 L | half-life ([1]; 0.25 mg): 116 h | AUC(0-inf) ([1]; 0.5 mg): 12000 ng·h/mL | CL/F ([1]; 0.5 mg): 0.693 mL/min | Cmax ([1]; 0.5 mg): 57.7 ng/mL | Tmax ([1]; 0.5 mg): 48 h | Vd/F ([1]; 0.5 mg): 7.46 L | half-life ([1]; 0.5 mg): 124 h | AUC(0-inf) ([1]; 1 mg): 22600 ng·h/mL | CL/F ([1]; 1 mg): 0.738 mL/min | Cmax ([1]; 1 mg): 108 ng/mL | Tmax ([1]; 1 mg): 24 h | Vd/F ([1]; 1 mg): 6.76 L | AUC(0-inf) ([1]; 2.5 mg): 53200 ng·h/mL | CL/F ([1]; 2.5 mg): 0.783 mL/min | Cmax ([1]; 2.5 mg): 231 ng/mL | Tmax ([1]; 2.5 mg): 24 h | Vd/F ([1]; 2.5 mg): 8.15 L | AUC(0-inf) ([1]; 5 mg): 90500 ng·h/mL | CL/F ([1]; 5 mg): 0.922 mL/min | Cmax ([1]; 5 mg): 397 ng/mL | Tmax ([1]; 5 mg): 24 h | Vd/F ([1]; 5 mg): 9.8 L | AUC(0-inf) ([1]; 8 mg): 169000 ng·h/mL | CL/F ([1]; 8 mg): 0.787 mL/min | Cmax ([1]; 8 mg): 874 ng/mL | Tmax ([1]; 8 mg): 48 h | Vd/F ([1]; 8 mg): 7.55 L | half-life ([1]; mean half-life): ~120 h | drug-related QT prolongation [2]: no signal of drug-related QT prolongation | lipase and amylase, mean values compared to baseline [3]: Increases from baseline in mean values of lipase and amylase within the normal range | average accumulation following four weekly doses [4]: 1.58 | mean steady-state volume of distribution [4]: 9.5 L | subjects who developed treatment-emergent or treatment-boosted ADAs [5]: Four | Abdominal distension (patients with T2DM; 0.5 mg, N=9): 0 (0.0) n (%) | Abdominal pain (patients with T2DM; 0.5 mg, N=9): 0 (0.0) n (%) | Acute pancreatitis (patients with T2DM; 0.5 mg, N=9): 0 (0.0) n (%) | Decreased appetite (patients with T2DM; 0.5 mg, N=9): 2 (22.2) n (%) | Dermatitis allergic (patients with T2DM; 0.5 mg, N=9): 0 (0.0) n (%) | Diarrhoea (patients with T2DM; 0.5 mg, N=9): 1 (11.1) n (%) | Dyspepsia (patients with T2DM; 0.5 mg, N=9): 0 (0.0) n (%) | Eructation (patients with T2DM; 0.5 mg, N=9): 0 (0.0) n (%) | Gastrooesophageal reflux disease (patients with T2DM; 0.5 mg, N=9): 0 (0.0) n (%) | Headache (patients with T2DM; 0.5 mg, N=9): 1 (11.1) n (%) | Hepatic enzyme increased (patients with T2DM; 0.5 mg, N=9): 0 (0.0) n (%) | Injection site reaction (patients with T2DM; 0.5 mg, N=9): 0 (0.0) n (%) | Nausea (patients with T2DM; 0.5 mg, N=9): 1 (11.1) n (%) | Pancreatic enzyme increased (patients with T2DM; 0.5 mg, N=9): 0 (0.0) n (%) | Serious adverse events (patients with T2DM; 0.5 mg, N=9): 0 (0.0) n (%) | Severe hypoglycaemia (patients with T2DM; 0.5 mg, N=9): 0 (0.0) n (%) | Study discontinuation due to adverse events (patients with T2DM; 0.5 mg, N=9): 0 (0.0) n (%) | TEAE Mild, events (patients with T2DM; 0.5 mg, N=9): 15 events | TEAE Moderate, events (patients with T2DM; 0.5 mg, N=9): 0 events | TEAE Severe, events (patients with T2DM; 0.5 mg, N=9): 0 events | Total hypoglycaemia (≤70 mg/dL) (patients with T2DM; 0.5 mg, N=9): 0 (0.0) n (%) | Vomiting (patients with T2DM; 0.5 mg, N=9): 1 (11.1) n (%) | Weight decrease (TEAE) (patients with T2DM; 0.5 mg, N=9): 0 (0.0) n (%) | Abdominal distension (patients with T2DM; 5 mg, N=9): 1 (11.1) n (%) | Abdominal pain (patients with T2DM; 5 mg, N=9): 0 (0.0) n (%) | Acute pancreatitis (patients with T2DM; 5 mg, N=9): 0 (0.0) n (%) | Decreased appetite (patients with T2DM; 5 mg, N=9): 6 (66.7) n (%) | Dermatitis allergic (patients with T2DM; 5 mg, N=9): 0 (0.0) n (%) | Diarrhoea (patients with T2DM; 5 mg, N=9): 1 (11.1) n (%) | Dyspepsia (patients with T2DM; 5 mg, N=9): 0 (0.0) n (%) | Eructation (patients with T2DM; 5 mg, N=9): 0 (0.0) n (%) | Gastrooesophageal reflux disease (patients with T2DM; 5 mg, N=9): 1 (11.1) n (%) | Headache (patients with T2DM; 5 mg, N=9): 0 (0.0) n (%) | Hepatic enzyme increased (patients with T2DM; 5 mg, N=9): 0 (0.0) n (%) | Injection site reaction (patients with T2DM; 5 mg, N=9): 0 (0.0) n (%) | Nausea (patients with T2DM; 5 mg, N=9): 1 (11.1) n (%) | Pancreatic enzyme increased (patients with T2DM; 5 mg, N=9): 0 (0.0) n (%) | Serious adverse events (patients with T2DM; 5 mg, N=9): 0 (0.0) n (%) | Severe hypoglycaemia (patients with T2DM; 5 mg, N=9): 0 (0.0) n (%) | Study discontinuation due to adverse events (patients with T2DM; 5 mg, N=9): 3 (33.3) n (%) | TEAE Mild, events (patients with T2DM; 5 mg, N=9): 17 events | TEAE Moderate, events (patients with T2DM; 5 mg, N=9): 0 events | TEAE Severe, events (patients with T2DM; 5 mg, N=9): 0 events | Total hypoglycaemia (≤70 mg/dL) (patients with T2DM; 5 mg, N=9): 0 (0.0) n (%) | Vomiting (patients with T2DM; 5 mg, N=9): 0 (0.0) n (%) | Weight decrease (TEAE) (patients with T2DM; 5 mg, N=9): 0 (0.0) n (%) | Abdominal distension (patients with T2DM; 5/5/10/10 mg, N=12): 2 (16.7) n (%) | Abdominal pain (patients with T2DM; 5/5/10/10 mg, N=12): 0 (0.0) n (%) | Acute pancreatitis (patients with T2DM; 5/5/10/10 mg, N=12): 0 (0.0) n (%) | Decreased appetite (patients with T2DM; 5/5/10/10 mg, N=12): 5 (41.7) n (%) | Dermatitis allergic (patients with T2DM; 5/5/10/10 mg, N=12): 0 (0.0) n (%) | Diarrhoea (patients with T2DM; 5/5/10/10 mg, N=12): 3 (25.0) n (%) | Dyspepsia (patients with T2DM; 5/5/10/10 mg, N=12): 3 (25.0) n (%) | Eructation (patients with T2DM; 5/5/10/10 mg, N=12): 1 (8.3) n (%) | Gastrooesophageal reflux disease (patients with T2DM; 5/5/10/10 mg, N=12): 1 (8.3) n (%) | Headache (patients with T2DM; 5/5/10/10 mg, N=12): 0 (0.0) n (%) | Hepatic enzyme increased (patients with T2DM; 5/5/10/10 mg, N=12): 1 (8.3) n (%) | Injection site reaction (patients with T2DM; 5/5/10/10 mg, N=12): 0 (0.0) n (%) | Nausea (patients with T2DM; 5/5/10/10 mg, N=12): 1 (8.3) n (%) | Pancreatic enzyme increased (patients with T2DM; 5/5/10/10 mg, N=12): 0 (0.0) n (%) | Serious adverse events (patients with T2DM; 5/5/10/10 mg, N=12): 0 (0.0) n (%) | Severe hypoglycaemia (patients with T2DM; 5/5/10/10 mg, N=12): 0 (0.0) n (%) | Study discontinuation due to adverse events (patients with T2DM; 5/5/10/10 mg, N=12): 0 (0.0) n (%) | TEAE Mild, events (patients with T2DM; 5/5/10/10 mg, N=12): 54 events | TEAE Moderate, events (patients with T2DM; 5/5/10/10 mg, N=12): 1 events | TEAE Severe, events (patients with T2DM; 5/5/10/10 mg, N=12): 0 events | Total hypoglycaemia (≤70 mg/dL) (patients with T2DM; 5/5/10/10 mg, N=12): 2 (16.7) n (%) | Vomiting (patients with T2DM; 5/5/10/10 mg, N=12): 1 (8.3) n (%) | Weight decrease (TEAE) (patients with T2DM; 5/5/10/10 mg, N=12): 2 (16.7) n (%) | Abdominal distension (patients with T2DM; 5/5/10/15 mg, N=12): 7 (58.3) n (%) | Abdominal pain (patients with T2DM; 5/5/10/15 mg, N=12): 2 (16.7) n (%) | Acute pancreatitis (patients with T2DM; 5/5/10/15 mg, N=12): 0 (0.0) n (%) | Decreased appetite (patients with T2DM; 5/5/10/15 mg, N=12): 11 (91.7) n (%) | Dermatitis allergic (patients with T2DM; 5/5/10/15 mg, N=12): 2 (16.7) n (%) | Diarrhoea (patients with T2DM; 5/5/10/15 mg, N=12): 5 (41.7) n (%) | Dyspepsia (patients with T2DM; 5/5/10/15 mg, N=12): 0 (0.0) n (%) | Eructation (patients with T2DM; 5/5/10/15 mg, N=12): 4 (33.3) n (%) | Gastrooesophageal reflux disease (patients with T2DM; 5/5/10/15 mg, N=12): 5 (41.7) n (%) | Headache (patients with T2DM; 5/5/10/15 mg, N=12): 2 (16.7) n (%) | Hepatic enzyme increased (patients with T2DM; 5/5/10/15 mg, N=12): 1 (8.3) n (%) | Injection site reaction (patients with T2DM; 5/5/10/15 mg, N=12): 0 (0.0) n (%) | Nausea (patients with T2DM; 5/5/10/15 mg, N=12): 6 (50.0) n (%) | Pancreatic enzyme increased (patients with T2DM; 5/5/10/15 mg, N=12): 1 (8.3) n (%) | Serious adverse events (patients with T2DM; 5/5/10/15 mg, N=12): 0 (0.0) n (%) | Severe hypoglycaemia (patients with T2DM; 5/5/10/15 mg, N=12): 0 (0.0) n (%) | Study discontinuation due to adverse events (patients with T2DM; 5/5/10/15 mg, N=12): 0 (0.0) n (%) | TEAE Mild, events (patients with T2DM; 5/5/10/15 mg, N=12): 87 events | TEAE Moderate, events (patients with T2DM; 5/5/10/15 mg, N=12): 9 events | TEAE Severe, events (patients with T2DM; 5/5/10/15 mg, N=12): 0 events | Total hypoglycaemia (≤70 mg/dL) (patients with T2DM; 5/5/10/15 mg, N=12): 1 (8.3) n (%) | Vomiting (patients with T2DM; 5/5/10/15 mg, N=12): 9 (75.0) n (%) | Weight decrease (TEAE) (patients with T2DM; 5/5/10/15 mg, N=12): 2 (16.7) n (%) | Any TEAE (patients with T2DM; 0.5 mg QW x4 SC, N=9): 5 (55.6) n (%) | Any TEAE (patients with T2DM; 5 mg QW x4 SC, N=9): 7 (77.8) n (%) | Any TEAE (patients with T2DM; 5/5/10/10 mg QW SC, N=12): 10 (83.3) n (%) | Any TEAE (patients with T2DM; 5/5/10/15 mg QW SC, N=12): 11 (91.7) n (%)

Dulaglutide: selective GLP-1 receptor agonist, positive control, 1.5 mg/0.5 mL single-use pen
Body Weight Change from Baseline, Day 29 (healthy subjects): -1.3 kg
